Legend:
[1] = metabolite of sulofenur; cited from earlier work
[2] = metabolite of sulofenur; cited from earlier work; remark: listed apart in the source
[3] = all species (mice, rats, dogs, monkeys); cited from earlier work
[4] = phase I clinical studies; cited from earlier work
[5] = system: C3H mice bearing a 6C3HED lymphosarcoma; assay: Toxicity (mice which died relative to total number in group) in C3H mice bearing 6C3HED lymphosarcoma; format: in vivo; conditions: oral gavage, daily for 8 days
Method: (§1) The compounds were tested in C3H mice bearing a 6C3HED lymphosarcoma, also known as the Gardner lymphosarcoma (GLS). The 6C3HED lymphosarcoma was obtained from the Division of Cancer Treatment, National Cancer Institute, Tumor Bank, maintained at E. G. and G. Mason Research (Worcester, Mass.). First passage tumor was stored in liquid nitrogen using standard techniques. The transplanted tumor was reestablished from the Tumor Bank every six months or as needed. The tumor was maintained by serial passage twice weekly in C3H mice.
(§2) Drug therapy on the appropriate schedule was initiated on the day after tumor implantation. The compound being tested was mixed with 2.5% Emulphor EL620 from GAF Corporation (1:40 dilution in 0.9% saline). The total dosage volume for each administration was 2.5 mL. All animals were weighed at the beginning and end of administration of the subject compounds. Food and water were provided ad libitum.
(§3) Each control group and each dosage level of the treated groups consisted of 10 mice selected at random from the pool of implanted animals. The compounds were administered orally by gavage with the use of an 18-gauge needle. Compounds were dosed daily for 8 days.
(§4) The results of several experiments in mice bearing a 6C3HED lymphosarcoma when the instant compounds were administered orally are provided in Table I. In the Table, column 1 gives the dose level of the compound mixture of Example 1, column 2 provides the percent inhibition of tumor growth, and column 3 gives the number of mice which died relative to the total number of animals in the group.

[6] = system: 6C3HED lymphosarcoma (Gardner lymphosarcoma, GLS); assay: Percent inhibition of tumor growth in C3H mice bearing 6C3HED lymphosarcoma (Gardner lymphosarcoma, GLS), oral; format: in vivo; conditions: oral gavage, daily for 8 days
Method: as §1
In the procedures utilized here, the tumor was removed from passage animals and minced into 1- to 3-mm cubic fragments using sterile techniques. Tumor pieces were checked for sterility using both Antibiotic Medium 1 and Brain Heart Infusion (Difco, Detroit, Mich.). Recipient mice were shaved and the tumor pieces were implanted subcutaneously in an axillary site by trochar.
as §2, §3
The tumor was measured the day after treatment ended with two dimensional measurements (width and length) of the tumor taken using Vernier calipers. Tumor weights were calculated from these measurements using the following formula:
Tumor weight (mg)=[tumor length (mm)×[tumor width (mm)]^2 ].div.2
At least one control group of an equal number of mice was treated with the same volume of 2.5% Emulphor only. The percent inhibition is determined by subtracting the ratio of the mean tumor size of the test group relative to the control group from one and multiplying the result by 100.
as §4

O=C(Nc1ccc(Cl)cc1)NS(=O)(=O)c1ccc2c(c1)CCC2O (stereo not shown) [N-(1-hydroxyindan-5-sulfonyl)-N'-(4-chlorophenyl)urea]
retention in humans compared with other species tested [1]: retained longer in humans than in the other species tested
contribution of metabolite to adverse effects [2]: contribute to the adverse effects
therapeutic activity of metabolite [2]: therapeutically inactive

O=C(Nc1ccc(Cl)cc1)NS(=O)(=O)c1ccc2c(c1)CCC2=O [N-(1-ketoindan-5-sulfonyl)-N'-(4-chlorophenyl)urea]
retention in humans compared with other species tested [1]: retained longer in humans than in the other species tested
contribution of metabolite to adverse effects [2]: contribute to the adverse effects
therapeutic activity of metabolite [2]: therapeutically inactive

O=C(Nc1ccc(Cl)cc1)NS(=O)(=O)c1ccc2c(c1)CCC2 [sulofenur, N-(indan-5-sulfonyl)-N'-(4-chlorophenyl)urea]
adsorption [3]: good adsorption
metabolism (extent) [3]: extensive metabolism
major metabolites in patients [4]: 1-hydroxy- and 1-ketoindansulfonylureas

N-[[(4-chlorophenyl)amino]carbonyl]-indene-5-sulfonamide (A) and N-[[(4-chlorophenyl)amino]carbonyl]-indene-6-sulfonamide (B) [Example 1]
Toxic/Total (mice which died relative to total number of animals in the group) ([5]; dosage 25.0 (unit not given)): 0/10
Toxic/Total (mice which died relative to total number of animals in the group) ([5]; dosage 50.0 (unit not given)): 0/10
Toxic/Total (mice which died relative to total number of animals in the group) ([5]; dosage 100.0 (unit not given)): 0/10
Toxic/Total (mice which died relative to total number of animals in the group) ([5]; dosage 150.0 (unit not given)): 0/10
Toxic/Total (mice which died relative to total number of animals in the group) ([5]; dosage 300.0 (unit not given)): 0/10
Percent Inhibition (of tumor growth) ([6]; dosage 25.0 (unit not given)): 16%
Percent Inhibition (of tumor growth) ([6]; dosage 50.0 (unit not given)): 36%
Percent Inhibition (of tumor growth) ([6]; dosage 100.0 (unit not given)): 77%
Percent Inhibition (of tumor growth) ([6]; dosage 150.0 (unit not given)): 100%
Percent Inhibition (of tumor growth) ([6]; dosage 300.0 (unit not given)): 100%
